Test results as given in PMC3465347, “Regulation of NF-κB Activation through a Novel PI-3K-Independent and PKA/Akt-Dependent Pathway in Human Umbilical Vein Endothelial Cells” (PLoS ONE, 2012).

Tested on: TNF-α-induced E-selectin expression on human endothelial cells
Assay: Cell-ELISA for E-selectin expression
Type: cell-based
Details: added 2–4 h prior to TNF-α stimulation; data not shown
Protocol: The endothelial cells were incubated with or without MPG and its derivatives at various concentrations for 2 h followed by treatment with TNF-α (10 ng/ml) for 16 h for ICAM-1 and VCAM-1 expression and 4 h for E-selectin expression. A Cell-ELISA was used to assess the expression of ICAM-1, VCAM-1 and E-selectin on the surface of endothelial cells as described previously.

SMILES: CC(=O)OC[C@H]1O[C@@H](Oc2c(C)occc2=O)[C@H](OC(C)=O)[C@@H](OC(C)=O)[C@@H]1OC(C)=O [MPTAG, 2-methyl-pyran-4-one-3-O-β-D-2′,3′,4′,6′-tetra-O-acetyl glucopyranoside]
- inhibition of E-selectin: maximum inhibition
